Data published in patent publication US20100161239A1, “QU[…]” (VICRO BVBA, priority 2003, published 2010).

Experiments:
[1] = tested on: one HIV-1 sample; experiment: Phenotypic antiviral experiment (as described in WO97/27480), fold change in IC50/EC50 relative to reference wild-type virus; assay type: cell-based; settings: fold change in IC50 or EC50 relative to reference wild-type virus
Protocol: (§1) For the purposes of the invention, the mutations identified should be associated with resistance or susceptibility to drug therapy, for example an antiretroviral drug. The degree to which a particular mutation pattern may affect resistance may be determined by one of skill in the art, for example, using the phenotypic resistance monitoring assay such as, the ANTIVIROGRAM® (Virco, Belgium) (see WO97/27480). In this methodology, resistance is determined with respect to a laboratory reference strain HIVLAI/IIIB. The difference in IC50 (the concentration of drug required to reduce the virus' growth in cell culture by 50%) between the patient sample and the reference viral strain is determined as a quotient. This fold change in IC50 is reported and indicative of the resistance profile of a certain drug. Based on the changes in IC50, cut-off values have been established to distinguish a sample from being sensitive or resistant to a certain drug.
The results were expressed in FR, or fold change in IC50 or EC50, relative to reference wild-type virus, which is the drug concentration at which 50% of the enzyme activity is inhibited, and is expressed in μM units. The FR cutoffs values for normal susceptible ranges were 8, 10, and 6, for nevirapine, delavirdine, and efavirenz, respectively.
The phenotypic antiviral experiment was taken as the gold-standard by the inventors. Said phenotypic antiviral experiment was performed as described in WO97/27480.

[2] = tested on: HIV virus strains 1-4; experiment: Measured phenotype (pFR = -log fold resistance), censored values, genotype/phenotype dataset; assay type: cell-based; settings: pFR = -log(FR)
Protocol: as §1
The phenotypes are presented as pFR values, where pFR is equal to −log(FR), where FR denotes the Fold Resistance. Negative pFR values thus denote resistance and positive values denote hyper-susceptibility. For example, a pFR value of −1.0 is equal to 10-fold resistance.
The used dataset consists of a set of matching genotype/phenotype measurements with possible multiple phenotype measurements per genotype. The mutations are defined relative to HXB2 at amino acid level. The phenotypes are presented as pFR values, which is equal to −log(FR), where FR denotes the Fold Resistance.
In this example, the method developed by the inventors to deal with censored values was applied for the drug amprenavir. Firstly, a linear regression model without censored values was calculated, see the values ‘APV_pFR’ for iteration 0 in the Tables 18-21 below. The phenotypic measured value is <−2.083062017 for Virus strain 1, for the first iteration, the value V0 is equal to the measured phenotype value APV_pFR, but the censor is considered as ‘=’. This was followed by iteration nr. 1. Once the values were obtained from iteration 1, the inventors compared the prediction value P, e.g. for Virus strain 1, −2.362076895 with the phenotypic measured value <−2.083062017. For virus strains 1, 2 and 3 below, the measured values have a censor ‘<’. For virus strains 4, the measured value has a censor ‘>’. The scenarios established by the inventors, when the case was ‘<’-censor, and when the case was ‘>’-censor, were applied. New linear regression models were calculated and for the censored values in the linear regression model, either the data-points from the training set were removed, as for virus strains 1, 2 and for virus strain 4 (iteration 2 and 3 only), or those data-points were used instead of the censored phenotypes measurement, as illustrated for virus strain 3 and for virus strain 4 (only iteration 1). The procedure was reiterated until the prediction converged.

CC(C)Nc1cccnc1N1CCN(C(=O)c2cc3cc(NS(C)(=O)=O)ccc3[nH]2)CC1 [delavirdine]
FR (phenotypic antiviral experiment) [1]: 3.7

O=C1Nc2ccc(Cl)cc2[C@@](C#CC2CC2)(C(F)(F)F)O1 [efavirenz]
FR (phenotypic antiviral experiment) [1]: 17.5

CC(C)CN(C[C@@H](O)[C@H](Cc1ccccc1)NC(=O)O[C@H]1CCOC1)S(=O)(=O)c1ccc(N)cc1 [APV, amprenavir]
APV_pFR (phenotypic measured value) ([2]; Virus strain 1, censor '<'): < −2.083 | APV_pFR (phenotypic measured value) ([2]; Virus strain 1, censor '<', listed as amprenavir): < −2.083 | APV_pFR (phenotypic measured value) ([2]; Virus strain 2, censor '<'): < −1.909 | APV_pFR (phenotypic measured value) ([2]; Virus strain 3, censor '<'): <−1.957 | APV_pFR (phenotypic measured value) ([2]; Virus strain 4, censor '>'): > 0.5154

Cc1ccnc2c1NC(=O)c1cccnc1N2C1CC1 [Nevirapine]
FR (phenotypic antiviral experiment) [1]: >89
